Data reported in patent US8618151B2, “Inhibitors of HCV NS5A” (Presidio Pharmaceuticals, Inc., priority 2008, dated 2013).

System: HCV genotype 1b replicon
Test: HCV replicon assay (1b_Huh-Luc/Neo-ET cell line, luciferase readout)
Type: cell-based
Conditions: Hepatitis C virus, Huh-7, 72 h, read-out: Inhibition of HCV genotype 1b
Procedure, shortened: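 Luciferase activity (Bright-Glo) after 72 h compound exposure, in triplicate, measured replicon levels in Huh 7-derived 1b_Huh-Luc/Neo-ET cells. EC50 was fitted from percent-of-control values and determined in repeat runs.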

Row | SMILES | EC50
1 | COC(=O)N[C@H](C(=O)N1CCC[C@H]1c1ncc(-c2ccc(-c3ccc4cc(-c5c[nH]c([C@@H]6CCCN6C(=O)[C@H](NC(=O)OC)c6ccccc6)n5)ccc4c3)cc2)[nH]1)C(C)C [compound 7] | < 1 nM
2 | COC(=O)N[C@H](C(=O)N1CCC[C@H]1c1nc(-c2cnc3cc(-c4ccc(-c5cnc([C@@H]6CCCN6C(=O)[C@@H](NC(=O)OC)C(C)C)[nH]5)nc4)ccc3c2)c[nH]1)C(C)C [compound 93] | < 1 nM
3 | COC(=O)N[C@H](C(=O)N1CCC[C@H]1c1ncc(-c2cccc(-c3cccc4cc(-c5cnc([C@@H]6CCCN6C(=O)[C@@H](NC(=O)OC)C(C)C)[nH]5)ccc34)c2)[nH]1)C(C)C [compound 130] | < 1 nM
4 | COC(=O)N[C@H](C(=O)N1CCC[C@H]1c1ncc(-c2ccc3cc(-c4ccc5nc([C@@H]6CCCN6C(=O)[C@@H](c6ccccc6)N6CCCC6)[nH]c5c4)ccc3c2)[nH]1)C(C)C [compound 180] | < 1 nM
5 | COC(=O)N[C@H](C(=O)N1CCC[C@H]1c1ncc(-c2ccc3nc(-c4ccc5nc([C@@H]6CCCN6C(=O)[C@H](NC(=O)OC)c6ccccc6)[nH]c5c4)ccc3c2)[nH]1)C(C)C [compound 197] | < 1 nM
6 | COC(=O)N[C@H](C(=O)N1CCC[C@H]1c1ncc(-c2ccc(-c3ccc4cc(-c5c[nH]c([C@@H]6CCCN6C(=O)[C@H](NC(=O)OC6CCOCC6)c6ccccc6)n5)cnc4c3)nc2)[nH]1)C(C)C [compound 81] | < 1 nM
7 | COC(=O)N[C@H](C(=O)N1CCC[C@H]1c1ncc(-c2ccc(-c3ccc4cc(-c5c[nH]c([C@@H]6CCCN6C(=O)[C@H](NC(=O)OC)c6ccccc6)n5)cnc4c3)c(F)c2)[nH]1)C(C)C [compound 58] | < 1 nM
8 | COC(=O)N[C@H](C(=O)N1CCC[C@H]1c1nc(-c2cnc3cc(-c4ccc(-c5cnc([C@@H]6CCCN6C(=O)[C@@H](NC(=O)OC)C(C)C)[nH]5)cn4)ccc3c2)c[nH]1)C(C)C [compound 74] | < 1 nM
9 | COC(=O)N[C@H](C(=O)N1CCC[C@H]1c1nc(-c2ccc3nc(-c4ccc(-c5cnc([C@@H]6CCCN6C(=O)[C@@H](NC(=O)OC)C(C)C)[nH]5)cc4)ncc3c2)c[nH]1)C(C)C [compound 17] | < 1 nM
10 | COC(=O)N[C@H](C(=O)N1CCC[C@H]1c1ncc(-c2ccc(-c3ccc4cc(-c5c[nH]c([C@@H]6CCCN6C(=O)[C@H](NC(=O)OC)c6ccccc6)n5)ccc4n3)cc2)[nH]1)C1CCOCC1 [compound 90] | < 1 nM
11 | CC(C)(C)OC(=O)N1CCCC1c1ncc(C23CCC(c4ccc5cc(-c6c[nH]c([C@@H]7CCCN7C(=O)OC(C)(C)C)n6)ccc5n4)(CC2)CC3)[nH]1 (some centres unmarked) [compound 268] | 10 to 999 nM
12 | COC(=O)N[C@H](C(=O)N1CCC[C@H]1c1nc(-c2cnc3cc(-c4ccc(-c5cnc([C@@H]6CCCN6C(=O)[C@H](NC(=O)OC)c6ccccc6)[nH]5)cc4)ccc3c2)c[nH]1)C(C)C [compound 32] | < 1 nM
13 | COC(=O)N[C@@H](C)C(=O)N1CCC[C@H]1c1nc(-c2ccc3nc(N4CCC(c5cnc([C@@H]6CCCN6C(=O)[C@H](C)NC(=O)OC)[nH]5)CC4)ccc3c2)c[nH]1 [compound 273] | 1 to 9.9 nM
14 | COC(=O)N[C@H](C(=O)N1CCC[C@H]1c1nc(-c2cnc3cc(-c4ccc(-c5cnc([C@@H]6CCCN6C(=O)[C@H](NC(=O)OC6CCOCC6)c6ccccc6)[nH]5)cc4)ccc3c2)c[nH]1)C(C)C [compound 88] | < 1 nM
15 | COC(=O)N[C@H](C(=O)N1CCC[C@H]1c1nc(-c2cnc3cc(-c4ccc(-c5cnc([C@@H]6CCCN6C(=O)[C@@H](NC(=O)OC)C(C)C)[nH]5)cc4F)ccc3c2)c[nH]1)C(C)C [compound 57] | < 1 nM
16 | COC(=O)N[C@H](C(=O)N1CCC[C@H]1c1ncc(-c2ccc3cc(-c4ccc5nc([C@@H]6CCCN6C(=O)[C@@H](NC(=O)OC)C6CCOCC6)[nH]c5c4)ncc3c2)[nH]1)C1CCOCC1 [compound 217] | 1 to 9.9 nM
17 | COC(=O)N[C@H](C(=O)N1CCC[C@H]1c1ncc(-c2ccc(-c3cc4ccc(-c5c[nH]c([C@@H]6CCCN6C(=O)[C@H](NC(=O)OC)c6ccccc6)n5)cc4cn3)cc2)[nH]1)C1CCOCC1 [compound 101] | < 1 nM
18 | COC(=O)N[C@H](C(=O)N1CCC[C@H]1c1ncc(-c2ccc(-c3nc4cc(-c5cnc([C@@H]6CCCN6C(=O)[C@@H](NC(=O)OC)[C@@H](C)OC)[nH]5)ccc4o3)cc2)[nH]1)[C@@H](C)OC [compound 238] | < 1 nM
19 | CNC(=O)N[C@@H](C(=O)N1CCC[C@H]1c1ncc(-c2ccc(-c3ccc4cc(-c5c[nH]c([C@@H]6CCCN6C(=O)[C@@H](NC(=O)OC)C(C)C)n5)ccc4n3)cc2)[nH]1)c1ccccc1 [compound 31] | < 1 nM
20 | COC(=O)N[C@H](C(=O)N1CCC[C@H]1c1nc2ccc(-c3ccc4cc(-c5ccc6nc([C@@H]7CCCN7C(=O)[C@@H](NC(=O)OC)C7CCOCC7)[nH]c6c5)ccc4c3)cc2[nH]1)C1CCOCC1 [compound 279] | < 1 nM
21 | COC(=O)N[C@H](C(=O)N1CCC[C@H]1c1ncc(-c2cnc3cc(-c4ccc5nc([C@@H]6CCCN6C(=O)[C@@H](NC(=O)OC)C(C)C)[nH]c5c4)ccc3c2)[nH]1)C(C)C [compound 187] | < 1 nM

Row | SMILES | EC50
22 | COC(=O)N[C@H](C(=O)N1CCC[C@H]1c1ncc(-c2ccc(-c3ccc4cc(-c5cnc([C@@H]6CCCN6C(=O)[C@@H](NC(=O)OC)C6CCOCC6)[nH]5)ccc4n3)cc2F)[nH]1)C(C)C [compound 123] | < 1 nM
23 | CN(C)[C@@H](C(=O)N1CCC[C@H]1c1nc(-c2ccc3nc(C45CCC(c6cnc([C@@H]7CCCN7C(=O)[C@@H](c7ccccc7)N(C)C)[nH]6)(CC4)CC5)ccc3c2)c[nH]1)c1ccccc1 [compound 264] | 1 to 9.9 nM
24 | COC(=O)N[C@H](C(=O)N1CCC[C@H]1c1nc2ccc3cc(-c4ccc5cc(-c6cnc([C@@H]7CCCN7C(=O)[C@@H](NC(=O)OC)C7CCOCC7)[nH]6)ccc5n4)ccc3c2[nH]1)C(C)C [compound 297] | < 1 nM
25 | COC(=O)N[C@H](C(=O)N1CCC[C@H]1c1ncc(-c2ccc3cc(-c4ccc5nc([C@@H]6CCCN6C(=O)[C@@H](NC(=O)OC)C6CCOCC6)[nH]c5n4)ccc3c2)[nH]1)C(C)C [compound 202] | < 1 nM
26 | COC(=O)N[C@H](C(=O)N1CCC[C@H]1c1ncc(-c2ccc3cc(-c4ccc5nc([C@@H]6CCCN6C(=O)[C@@H](NC(=O)OC)C6CCCC6)[nH]c5c4)ccc3c2)[nH]1)C1CCCC1 [compound 218] | < 1 nM
27 | COC(=O)N[C@H](C(=O)N1CCC[C@H]1c1nc(-c2ccc3cc(-c4ccc(-c5cnc([C@@H]6CCCN6C(=O)[C@@H](NC(=O)OC)C(C)C)[nH]5)cc4F)ccc3c2)c[nH]1)C(C)C [compound 66] | < 1 nM
28 | COC(=O)N[C@@H](C(=O)N1CCC[C@H]1c1nc(-c2cnc3cc(-c4ccc(-c5cnc([C@@H]6CCCN6C(=O)[C@H](NC(=O)OC)c6ccccc6)[nH]5)cn4)ccc3c2)c[nH]1)c1ccccc1 [compound 80] | < 1 nM
29 | COC(=O)N[C@H](C(=O)N1CCC[C@H]1c1nc(-c2ccc3cc(-c4ccc(-c5cnc([C@@H]6CCCN6C(=O)[C@H](NC(=O)OC)c6ccccc6)[nH]5)nc4)ccc3c2)c[nH]1)C(C)C [compound 63] | < 1 nM
30 | COC(=O)N[C@@H](C(=O)N1CCC[C@H]1c1ncc(-c2ccc(-c3nc4ccc(-c5cnc([C@@H]6CCCN6C(=O)[C@H](NC(=O)OC)c6ccccc6)[nH]5)cc4s3)cc2)[nH]1)c1ccccc1 [compound 230] | < 1 nM
31 | COC(=O)N[C@H](C(=O)N1CCC[C@H]1c1ncc(-c2ccc(-c3ccc4cc(-c5c[nH]c([C@@H]6CCCN6C(=O)[C@@H](NC(=O)OC)C6CCOCC6)n5)cnc4c3)cc2)[nH]1)C(C)C [compound 50] | < 1 nM
32 | COC(=O)N[C@H](C(=O)N1CCC[C@H]1c1ncc(-c2ccc(-c3ccc4nc(-c5cnc([C@@H]6CCCN6C(=O)[C@@H](NC(=O)OC)C(C)C)[nH]5)sc4c3)cc2)[nH]1)C(C)C [compound 258] | < 1 nM
33 | COC(=O)N[C@H](C(=O)N1CCC[C@H]1c1ncc(-c2ccc3cc(-c4ccc(-c5cnc([C@@H]6CCCN6C(=O)[C@H](NC(=O)OC6CCOCC6)c6ccccc6)[nH]5)cc4)ncc3c2)[nH]1)C1CCOCC1 [compound 117] | < 1 nM
34 | COC(=O)N[C@H](C(=O)N1CCCC[C@H]1c1ncc(-c2ccc(-c3nc4ccc(-c5cnc([C@@H]6CCCCN6C(=O)[C@@H](NC(=O)OC)C(C)C)[nH]5)cc4s3)cc2)[nH]1)C(C)C [compound 243] | < 1 nM
35 | COC(=O)N[C@H](C(=O)N1CCC[C@H]1c1ncc(-c2ccc3cc(-c4ccc(-c5cnc([C@@H]6CCCN6C(=O)[C@H](NC(=O)OC)c6ccccc6)[nH]5)c(F)c4)ncc3c2)[nH]1)C(C)C [compound 155] | < 1 nM
36 | CNC(=O)N[C@@H](C(=O)N1CCC[C@H]1c1ncc(-c2ccc(-c3ccc4cc(-c5c[nH]c([C@@H]6CCCN6C(=O)[C@@H](NC(=O)OC)C(C)C)n5)ccc4c3)cc2)[nH]1)c1ccccc1 [Compound 18] | < 1 nM
37 | COC(=O)N[C@H](C(=O)N1CCC[C@H]1c1ncc(-c2ccc(-c3ccc4cc(-c5cnc([C@@H]6CCCN6C(=O)[C@@H](NC(=O)OC)C6CCOCC6)[nH]5)ccc4c3)c(F)c2)[nH]1)C1CCOCC1 [compound 141] | < 1 nM
38 | COC(=O)N[C@H](C(=O)N1CCC[C@H]1c1nc(-c2ccc3nc(N4CCC(c5cnc([C@@H]6CCCN6C(=O)[C@@H](NC(=O)OC)C6CC6)[nH]5)CC4)ccc3c2)c[nH]1)C1CC1 [compound 274] | 1 to 9.9 nM
39 | COC(=O)N[C@H](C(=O)N1CCC[C@H]1c1ncc(-c2ccc(-c3nc4ccc(-c5cnc([C@@H]6CCCN6C(=O)[C@@H](NC(=O)OC)[C@@H](C)OC)[nH]5)cc4o3)cc2)[nH]1)C(C)C [compound 253] | < 1 nM
40 | COC(=O)N[C@H](C(=O)N1CCC[C@H]1c1nc(-c2ccc3cc(-c4ccc(-c5cnc([C@@H]6CCCN6C(=O)[C@H](NC(=O)OC6CCOCC6)c6ccccc6)[nH]5)cc4)ccc3c2)c[nH]1)C1CCOCC1 [compound 113] | < 1 nM
41 | COC(=O)N[C@@H](C(=O)N1CCCC[C@H]1c1ncc(-c2ccc(-c3nc4ccc(-c5cnc([C@@H]6CCCCN6C(=O)[C@H](NC(=O)OC)c6ccccc6)[nH]5)cc4s3)cc2)[nH]1)c1ccccc1 [compound 248] | < 1 nM
